Results taken from the supplement of paper PMC10307832.

Tests used:
Assay in all cases: relative viability (nuclei count vs DMSO), 5 days (fraction); higher = more cells survive
[1] = compound: Cc1ccc(C(=O)Nc2cccc(C(F)(F)F)c2)cc1Nc1cncc(C(N)=O)c1 [ALW-II-49-7] + CC(=O)Nc1cccc(-n2c(=O)n(C3CC3)c(=O)c3c(Nc4ccc(I)cc4F)n(C)c(=O)c(C)c32)c1 [Trametinib] (partner 0.02 µM)
Procedure, shortened: (§1)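 Medians of duplicate plates are given as relative viability. That measure is the nuclei count in treated wells divided by the count in vehicle wells. Counts were taken on 4× images of lung cancer cell lines in 1536-well plates, 5 days after pin-tool dosing the day after seeding with one drug alone or a fixed anchor-drug dose plus five library-drug doses (not always all listed) in √10 steps.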

[2] = compound: Cc1ccc(C(=O)Nc2cccc(C(F)(F)F)c2)cc1Nc1cncc(C(N)=O)c1 [ALW-II-49-7] + N=C(N)NC(=N)NCCc1ccccc1 [Phenformin] (partner 250 µM)
Procedure, shortened: as §1

[3] = compound: Cc1ccc(C(=O)Nc2cccc(C(F)(F)F)c2)cc1Nc1cncc(C(N)=O)c1 [ALW-II-49-7] + Nc1nc2[nH]cc(CCc3ccc(C(=O)N[C@@H](CCC(=O)O)C(=O)O)cc3)c2c(=O)[nH]1 [Pemetrexed] (partner 0.2 µM)
Procedure, shortened: as §1

[4] = compound: Cc1nc(Nc2ncc(C(=O)Nc3c(C)cccc3Cl)s2)cc(N2CCN(CCO)CC2)n1 [Dasatinib] + Nc1ncn([C@H]2C[C@H](O)[C@@H](CO)O2)c(=O)n1 [Decitabine] (partner 2 µM)
Procedure, shortened: as §1

Cell Line	relative viability ([1]; first compound 0.08 µM)	relative viability ([1]; first compound 0.253 µM)	relative viability ([1]; first compound 0.8 µM)	relative viability ([1]; first compound 2.53 µM)	relative viability ([1]; first compound 8 µM)	relative viability ([2]; first compound 0.08 µM)	relative viability ([2]; first compound 0.253 µM)	relative viability ([2]; first compound 0.8 µM)	relative viability ([2]; first compound 2.53 µM)	relative viability ([2]; first compound 8 µM)	relative viability ([3]; first compound 0.08 µM)	relative viability ([3]; first compound 0.253 µM)	relative viability ([3]; first compound 0.8 µM)	relative viability ([3]; first compound 2.53 µM)	relative viability ([3]; first compound 8 µM)	relative viability ([4]; first compound 0.005 µM)	relative viability ([4]; first compound 0.01581 µM)	relative viability ([4]; first compound 0.05 µM)	relative viability ([4]; first compound 0.1581 µM)	relative viability ([4]; first compound 0.5 µM)
LC-2-ad	0.94	0.917	0.881	0.858	0.945	0.478	0.555	0.58	0.638	0.531	0.249	0.258	0.273	0.229	0.267	0.745	0.822	0.781	0.744	0.393
NCI-H596	0.684	0.786	0.769	0.791	0.912	0.804	0.706	0.596	0.622	0.788	0.449	0.47	0.469	0.503	0.444	0.955	0.916	0.724	0.668	0.542
NCI-H1437	0.486	0.573	0.332	0.512	0.509	0.266	0.297	0.301	0.297	0.263	0.324	0.328	0.345	0.311	0.243	0.599	0.576	0.642	0.499	0.49
NCI-H727	0.393	0.378	0.354	0.357	0.365	0.52	0.593	0.537	0.475	0.51						0.818	0.7	0.742	0.718	0.295
PC-3 [JPC-3]	0.676	0.786	0.745	0.809	0.847	0.486	0.461	0.456	0.448	0.452	0.976	0.909	0.843	1.27	0.947	0.799	0.802	0.81	0.755	0.623
SW 1573	0.561	0.556	0.611	0.637	0.491	0.347	0.385	0.374	0.479	0.398	0.608	0.847	0.77	0.667	0.827	0.431	0.428	0.381	0.288	0.405
NCI-H2228	0.413	0.408	0.406	0.521	0.373	0.286	0.215	0.328	0.251	0.334	0.323	0.356	0.356	0.289	0.134					
NCI-H1650	0.438	0.688	0.557	0.666	0.78	0.447	0.465	0.427	0.492	0.476	0.352	0.379	0.383	0.378	0.406	0.462	0.255	0.475	0.318	0.314
NCI-H358	0.117	0.123	0.142	0.14	0.119	0.324	0.297	0.356	0.407	0.312	0.163	0.181	0.189	0.148	0.155	0.211	0.173	0.169	0.127	0.146
NCI-H1792	0.583	0.436	0.42	0.369	0.471			0.228	0.147	0.258	0.561	0.531	0.446	0.857	0.602	0.544	0.51	0.469	0.342	0.178
COR-L 105	0.443	0.401	0.43	0.453	0.396	0.423	0.48	0.471	0.466	0.47	1.16	1.06	1.21	0.959	0.974	0.599	0.604	0.478	0.445	0.297
LU99A		0.622	0.62	0.374	0.399	0.845	0.923	0.82	0.988	0.746		0.19	0.163	0.172	0.184	0.827	0.819	0.833	0.655	0.46
H3255	0.856	0.52	0.681	0.62	0.455	0.442	0.394	0.373	0.331	0.329	0.623	0.579	0.576	0.566	0.489	0.66	0.573	0.568	0.493	0.311
NCI-H1734	0.641	0.749	0.668	0.622	0.593	0.345	0.359	0.385	0.381	0.335	0.427	0.448	0.428	0.404	0.443	0.508	0.48	0.533	0.412	0.321
CAL-12T	0.294	0.336	0.346	0.307	0.288	0.543	0.498	0.603	0.627	0.538	1.16	1.3	1.27	1.25	0.749					
NCI-H1623						0.566	0.504	0.574	0.565	0.564										
ABC-1						0.3	0.244	0.249	0.26	0.262						1.31	0.953	1.18	1.06	0.975
NCI-H1563						0.65	0.71	0.67	0.683	0.606	0.73	0.732	0.718	0.811	0.713					
